System: human immunodeficiency virus (HIV)
Assay: HIV viral assay (carried out by Imquest Bioscience)
Format: cell-based
Experimental: Antiviral compounds may be incorporated into polymers, such as hydrophilic polyurethanes or silicone, for certain applications where antiviral activities are needed.
The compound (0.5 gms) was protonated using dilute hydrochloric acid to a pH of 4 to a total volume of 30 ml. To 5 gms of this solution was added 5 gms of polyvinyl sulfonate (Aldrich, a 25 wt % aqueous solution). A white precipitate of the adduct immediately formed and remained colloidal without settling. This was used as such for an assay carried out by Imquest Bioscience, MD, and high dilutions were studied. […] These and other compounds could be incorporated into the polyurethane plastics of this invention for their slow delivery of antivirals; other viruses could be potentially also be deactivated.

c1c[nH]c(-c2ncc[nH]2)n1 [bimidazole, biimidazole]
antiviral efficacy (in words): potent antiviral

Reference: US20080124368A1, “Composition” (priority 2004, published 2008)
